Reference: ChEMBL document CHEMBL5321282, “Design, Synthesis, and Biological Evaluation of Esculetin-Furoxan-DEAC Ternary Hybrids for Anti-Triple Negative Breast Cancer” (J Med Chem, 2023)
The source made the active and inactive calls. The rule behind the calls is not given here.

Key:
MDA-MB-231 [1] = test: Induction of apoptosis in human MDA-MB-231 cells assessed as increase in activation of caspase level incubated for 8 hrs by Western blotting analysis; assay type: functional, cell-based; conditions: dose 5-20 nM
HCT-116 = test: Antiproliferative activity against human HCT-116 cells assessed as inhibition of cell growth measured after 48 hrs by MTT assay; assay type: functional, cell-based; conditions: HCT-116, 48 h
MCF7 = test: Antiproliferative activity against human MCF7 cells assessed as inhibition of cell growth measured after 48 hrs by MTT assay; assay type: functional, cell-based; conditions: MCF7, 48 h
[2] = Cytotoxicity against human L02 cells assessed as inhibition in cell growth measured after 48 hrs by MTT assay; assay type: toxicity, cell-based
[3] = Cytotoxicity against human MCF-10A cells assessed as inhibition in cell growth measured after 48 hrs by MTT assay; assay type: toxicity, cell-based
[4] = Selectivity index, ratio of IC50 for cytotoxicity against human MCF-10A cells to IC50 for antiproliferative activity against human MDA-MB-231 cells; assay type: toxicity, cell-based; conditions: MCF-10A cells versus MDA-MB-231 cells, read-out: Ratio IC50
[5] = Drug localization in mitochondria of human MDA-MB-231 cells at 1 uM incubated for 1 hr measured after 40 mins by mito-tracker probe based confocal laser scanning microscopic analysis; assay type: ADME; conditions: mda-mb-231, 1.667 h, time 100 min
[6] = Drug localization in mitochondria of human HCT-116 cells at 1 uM incubated for 1 hr measured after 40 mins by mito-tracker probe based confocal laser scanning microscopic analysis; assay type: ADME; conditions: hct-116, 1.667 h, time 100 min
MDA-MB-231 [7] = test: Antiproliferative activity against human MDA-MB-231 cells assessed as effect on NO level at 20 nM measured after 24 hrs in presence of PTIO by MTT assay; assay type: functional, cell-based
MDA-MB-231 [8] = test: Induction of mitochondrial membrane potential depolarization in human MDA-MB-231 cells assessed as increase in green fluorescence at 5 to 20 nM incubated for 24 hrs by JC-1 staining based inverted fluorescent microscopic analysis; assay type: functional, cell-based; conditions: dose 5-20 nM
MDA-MB-231 [9] = test: Induction of apoptosis in human MDA-MB-231 cells assessed as viable cells at 5 nM incubated for 24 hrs by Annexin V-FITC/PI staining based flow cytometric analysis (reference value: 90.1%); assay type: functional; conditions: read-out: Activity
MDA-MB-231 [10] = test: Induction of apoptosis in human MDA-MB-231 cells assessed as viable cells at 10 nM incubated for 24 hrs by Annexin V-FITC/PI staining based flow cytometric analysis (reference value: 90.1%); assay type: functional; conditions: read-out: Activity
MDA-MB-231 [11] = test: Induction of apoptosis in human MDA-MB-231 cells assessed as early apoptotic cells at 5 nM incubated for 24 hrs by Annexin V-FITC/PI staining based flow cytometric analysis (reference value: 4.90%); assay type: functional
MDA-MB-231 [12] = test: Induction of apoptosis in human MDA-MB-231 cells assessed as early apoptotic cells at 20 nM incubated for 24 hrs by Annexin V-FITC/PI staining based flow cytometric analysis (reference value: 4.90%); assay type: functional
MDA-MB-231 [13] = test: Induction of apoptosis in human MDA-MB-231 cells assessed as late apoptotic cells at 20 nM incubated for 24 hrs by Annexin V-FITC/PI staining based flow cytometric analysis (reference value: 4.90%); assay type: functional
MDA-MB-231 [14] = test: Induction of apoptosis in human MDA-MB-231 cells assessed as necrotic cells at 5 nM incubated for 24 hrs by Annexin V-FITC/PI staining based flow cytometric analysis (reference value: 0.11%); assay type: functional
MDA-MB-231 [15] = test: Induction of cell cycle arrest in human MDA-MB-231 cells assessed as accumulation of cells at G1 phase at 5 nM measured after 24 hrs by PI staining based flow cytometric analysis (Rvb =58%); assay type: functional
MDA-MB-231 [16] = test: Induction of cell cycle arrest in human MDA-MB-231 cells assessed as accumulation of cells at G1 phase at 10 nM measured after 24 hrs by PI staining based flow cytometric analysis (Rvb =58%); assay type: functional
MDA-MB-231 [17] = test: Induction of cell cycle arrest in human MDA-MB-231 cells assessed as accumulation of cells at G1 phase at 20 nM measured after 24 hrs by PI staining based flow cytometric analysis (Rvb =58%); assay type: functional
MDA-MB-231 [18] = test: Induction of cell cycle arrest in human MDA-MB-231 cells assessed as accumulation of cells at S phase at 10 nM measured after 24 hrs by PI staining based flow cytometric analysis (Rvb =24.1%); assay type: functional
MDA-MB-231 [19] = test: Induction of cell cycle arrest in human MDA-MB-231 cells assessed as accumulation of cells at S phase at 20 nM measured after 24 hrs by PI staining based flow cytometric analysis (Rvb =24.1%); assay type: functional
MDA-MB-231 [20] = test: Induction of cell cycle arrest in human MDA-MB-231 cells assessed as accumulation of cells at G2 phase at 5 nM measured after 24 hrs by PI staining by flow cytometric analysis (Rvb =18.1%); assay type: functional
MDA-MB-231 [21] = test: Induction of cell cycle arrest in human MDA-MB-231 cells assessed as accumulation of cells at G2 phase at 10 nM measured after 24 hrs by PI staining by flow cytometric analysis (Rvb =18.1%); assay type: functional
MDA-MB-231 [22] = test: Induction of cell cycle arrest in human MDA-MB-231 cells assessed as accumulation of cells at G2/M phase at 5 to 20 nM measured after 24 hrs by PI staining by flow cytometric analysis (Rvb =11.70%); assay type: functional; conditions: dose 5-20 nM
MDA-MB-231 [23] = test: Induction of apoptosis in human MDA-MB-231 cells assessed as increase in Bcl2 level incubated for 8 hrs by Western blotting analysis; assay type: functional, cell-based; conditions: dose 5-20 nM
MDA-MB-231 [24] = test: Induction of apoptosis in human MDA-MB-231 cells assessed as decrease in mitochondrial CytC level at 5 to 20 nM incubated for 8 hrs by Western blotting analysis; assay type: functional, cell-based; conditions: dose 5-20 nM
MDA-MB-231 [25] = test: Induction of apoptosis in human MDA-MB-231 cells assessed as decrease in mitochondrial SMAC level at 5 to 20 nM incubated for 8 hrs by Western blotting analysis; assay type: functional, cell-based; conditions: dose 5-20 nM
MDA-MB-231 [26] = test: Induction of apoptosis in human MDA-MB-231 cells assessed as increase in cytoplasmic CytC level at 5 to 20 nM incubated for 8 hrs by Western blotting analysis; assay type: functional, cell-based; conditions: dose 5-20 nM
MDA-MB-231 [27] = test: Induction of apoptosis in human MDA-MB-231 cells assessed as effect on ANT level at 5 to 20 nM incubated for 8 hrs by Western blotting analysis; assay type: functional, cell-based; conditions: dose 5-20 nM
MDA-MB-231 [28] = test: Antitumor activity against human MDA-MB-231 cells xenografted in BALB/C mouse assessed as inhibition of tumor volume at 5 mg/kg, ip administered every 2 days measured after 3 weeks; assay type: functional; design: scale not given: the % may be the effect or the level left
[29] = Toxicity in BALB/C mouse xenografted with human MDA-MB-231 cells assessed as liver damage at 2.5 to 5 mg/kg, ip administered every 2 days measured after 3 weeks by H and E staining based analysis; assay type: organism-based; conditions: in vivo, 504 h, dose 2.5-5 mg/kg
[30] = Toxicity in BALB/C mouse xenografted with human MDA-MB-231 cells assessed as heart damage at 2.5 to 5 mg/kg, ip administered every 2 days measured after 3 weeks by H and E staining based analysis; assay type: organism-based; conditions: in vivo, 504 h, dose 2.5-5 mg/kg
MDA-MB-231 [31] = test: Antitumor activity against human MDA-MB-231 cells xenografted in BALB/C mouse assessed as increase in ROS level in tumor at 2.5 to 5 mg/kg, ip administered every 2 days measured after 3 weeks by DHE staining based analysis; assay type: functional, organism-based; conditions: dose 2.5-5 mg/kg

In the case of `CCN(CC)c1ccc2cc(C(=O)OCCCCCOc3cc4ccc(=O)oc4cc3OCCCCCCOc3no[n+]([O-])c3S(=O)(=O)c3ccccc3)c(=O)oc2c1`, the Activity (MDA-MB-231 [1]) is reported as “Dose-Dependent Effect”, the IC50 (HCT-116) is reported as 4.14 µM and the IC50 (MCF7) is reported as 2.14 µM. For the same compound, the IC50 at 48 h [2] was 11.9 µM, the IC50 at 48 h [3] was over 50 µM and the selectivity ratio [4] was over 6250. The Drug uptake [5] was “Active”, the Drug uptake [6] was “Active” and the Activity (MDA-MB-231 [7]) was “inactive”. The Activity (MDA-MB-231 [8]) was “Active”, the viability at 0.005 µM (MDA-MB-231 [9]) was 67.1% and the viability at 0.01 µM (MDA-MB-231 [10]) was 47.3%. It also gave an Activity (MDA-MB-231 [11]) of 12.2%, an Activity (MDA-MB-231 [12]) of 31.9% and an Activity (MDA-MB-231 [13]) of 39%. It also gave an Activity (MDA-MB-231 [14]) of 0.26%, an Activity (MDA-MB-231 [15]) of 55.3% and an Activity (MDA-MB-231 [16]) of 56%. It also gave an Activity (MDA-MB-231 [17]) of 57.9%, an Activity (MDA-MB-231 [18]) of 25.9% and an Activity (MDA-MB-231 [19]) of 21%. For the same compound, the Activity (MDA-MB-231 [20]) was 12.8%, the Activity (MDA-MB-231 [21]) was 13.8% and the Activity (MDA-MB-231 [22]) was 22.97%. The Activity (MDA-MB-231 [23]) was “Dose-Dependent Effect”, the Activity (MDA-MB-231 [24]) was “Active” and the Activity (MDA-MB-231 [25]) was “Active”. The Activity (MDA-MB-231 [26]) was “Active”, the Activity (MDA-MB-231 [27]) was “inactive” and the Activity (MDA-MB-231 [28]) was 63.5%. The Activity [29] was “Non-Toxic”, the Activity [30] was “Non-Toxic” and the Activity (MDA-MB-231 [31]) was “Active”.
